# Data from article PMC11435248, “Auraptene Boosts the Efficacy of the Tamoxifen Metabolites Endoxifen and 4-OH-Tamoxifen in a Chemoresistant ER+ Breast Cancer Model” (Pharmaceutics, 2024).
# Target: T1, eIF4A1 (Homo sapiens, UniProt P60842)
# T1 construct: recombinant eIF4A1 from pET19bm, 10-histidine tract at the N-terminal with Prescission Protease site, expressed in E. coli Rosetta Star
# Experiment: fluorescence quenching of purified recombinant eIF4A ([…] auraptene)
# Format: binding
# T1 sequence (P60842 2-406): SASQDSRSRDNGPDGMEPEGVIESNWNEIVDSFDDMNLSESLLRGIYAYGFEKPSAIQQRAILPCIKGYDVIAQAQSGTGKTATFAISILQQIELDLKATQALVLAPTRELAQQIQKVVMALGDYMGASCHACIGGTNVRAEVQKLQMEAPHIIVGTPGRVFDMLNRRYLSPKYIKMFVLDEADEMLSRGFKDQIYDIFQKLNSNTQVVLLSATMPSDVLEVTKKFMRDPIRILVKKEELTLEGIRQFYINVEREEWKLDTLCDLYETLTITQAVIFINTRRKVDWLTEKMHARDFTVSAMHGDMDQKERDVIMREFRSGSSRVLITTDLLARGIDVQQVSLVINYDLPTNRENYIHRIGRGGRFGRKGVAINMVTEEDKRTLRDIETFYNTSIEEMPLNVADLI
structure (smiles),measurement,value
"CC(C)=CCC/C(C)=C/COc1ccc2ccc(=O)oc2c1 [Aur, auraptene]",fluorescence quenching of purified recombinant eIF4A (50 and 100 μM auraptene),"a reduction in the emission intensity was observed, resulting from a quenching phenomenon, suggesting that auraptene binds with the eIF4A"
